Experimental data as given in patent US11161865B2, “Radiolabeled and fluorescent PARP inhibitors for imaging and radiotherapy” (THE TRUSTEES OF THE UNIVERSITY OF PENNSYLVANIA, priority 2017, dated 2021).

Assays:
[1] = tested on: neuroblastoma cell lines; experiment: Cell viability dose response curves in neuroblastoma cell lines; format: cell-based; details: in vitro, FIG. 2A
Protocol: Two sets of cell viability assays were performed to characterize [^211At]-Compound 1 in neuroblastoma, ovarian, and breast cancer cells. […] The first assay performed was a screen of 25 cell lines at a single concentration of 5 μCi/mL. […] Following treatment cell viability was assessed using a commercially available kit that measures ATP and data was normalized to healthy controls to produce % surviving fraction. […] Cells were treated for 72 hrs followed by evaluation of cell viability. […] Effective concentrations to reduce 50% growth compared to healthy controls were calculated using standard curve fitting software.

[2] = tested on: phosphorylated ATM and H2AX; experiment: Flow cytometry of phosphorylated ATM and H2AX (DNA double strand breaks); format: cell-based; details: 1 μCi/mL
Protocol: To accomplish this, γH2AX and PARP-1 were measured after being treated NLF cells for 1, 4, or 24 hours at doses of 0.1, or 1 μCi/mL. Data was analyzed by quantifying small regions of interest in the nucleus of cells and by nuclear co-localization. […] In flow cytometry experiments, DNA damage was measured by quantifying phosphorylated ATM and H2AX. Lastly, cell cycle analysis was evaluated using propidium iodide staining in control vs. [^211At]-Compound 1 treated cells.

[3] = tested on: IMR-05 neuroblastoma xenograft; experiment: In vivo biodistribution in IMR-05 neuroblastoma xenograft model; parameters: species or system nude SHC mice; details: 5 μCi intravenously; for tumor versus normal tissue distribution of activity: 2 hrs
Protocol: To evaluate the in vivo biodistribution of [211A]-Compound 1, an IMR-05 neuroblastoma xenograft model in nude SHC mice was utilized. Xenografts were generated by the subcutaneous injection of 5-10 million IMR-05 neuroblastoma cells. Tumors were then allowed to engraft for 3-4 weeks when they reached 200-300 mm^3. Animals were then intravenously injected with 5 μCi of [211At]-Compound 1 and tissues were harvested at time points of […], 1 and 2 hrs. Samples were then assayed for radioactivity on a gamma counter and data was normalized to percent injected dose by divining the amount of radioactivity in the tissue by the total amount injected. […] Tissue was then flash frozen and 20 micron thick sections were produced using a cryotome. Sections were then exposed to phosphor films and films were read on a digital phosphorimager.

In the case of O=C1NCCn2c(-c3ccc([211At])cc3)nc3cccc1c32 [[^211At]-Compound 1], the specificity of cytotoxicity [1] is reported as “PARP-1 specific”, the “increase in phosphorylation of ATM and H2AX (DNA double strand breaks) compared to control” value [2] is reported as 98% and the “significant deastatination (accumulation of activity in lung, thyroid (neck), or stomach)” value [3] is reported as “not observed”. For the same molecule, the “tumor versus normal tissue distribution of activity” value [3] was “concentration of activity in the tumor” and the “tumor versus normal tissue distribution of activity” value ([3]; listed as 211At-Compound 1) was “higher tumor to tissue ratios in the majority of normal organs”.
